Results as given in paper PMC2676060 (European journal of medicinal chemistry, 2008).

Assays:
[1] = biological target: recombinant HIV-1 RT enzyme (p66/51 dimer) (Human immunodeficiency virus type 1 group M subtype B, UniProt P03366); test: RT inhibition assay, poly; assay type: biochemical; settings: for HIV-1 RT inhibition (in words): poly(rC)·oligo(dG) as template primer
[2] = cited from earlier work

Compound: COC(=O)CCC/C=C(\c1cc(F)cc(C(F)(F)F)c1)c1cc(C)c2onc(OC)c2c1 [Compound 1]
- IC50 [1]: 900 nM

Compound: COC(=O)CCC/C=C(/c1cc(C)c2onc(OC)c2c1)c1cc(C)c2oc(=O)n(C)c2c1 [Compound 2]
- stability in rat blood plasma (in words) [2]: unstable

Compound: COC(=O)CCC/C=C(\c1cc(C)c(OC)c(C(=O)OC)c1)c1cc(C)c2onc(OC)c2c1 [Compound 3, (Z)-2-Methoxy-5-[5-methoxycarbonyl-1-(3-methoxy-7-methylbenzo[d]isoxazol-5-yl)-pent-1-enyl]-3-methylbenzoic acid methyl ester]
- IC50 [1]: 910 nM

Compound: COC(=O)c1cc(/C(=C/CCN2CCOC2=O)c2cc(C)c3onc(OC)c3c2)cc(C)c1OC [Compound 5, (E)-2-Methoxy-5-[1-(3-methoxy-7-methylbenzo[d]isoxazol-5-yl)-4-(2-oxoxazolidin-3-yl)-but-1-enyl]-3-methylbenzoic acid methyl ester]
- HIV-1 RT inhibition (in words) [1]: much less active

Compound: COC(=O)c1cc(/C(=C/CCN2CCOC2=O)c2cc(C)c3onc(OC)c3c2)cc(Cl)c1OC [Compound 6, (E)-3-Chloro-2-methoxy-5-[1-(3-methoxy-7-methyl-benzo[d]isoxazol-5-yl)-4-(2-oxoxazolidin-3-yl)-but-1-enyl]-benzoic acid methyl ester]
- HIV-1 RT inhibition (in words) [1]: much less active

Compound: COc1noc2c(C)cc(C(=CCCN3CCOC3=O)c3cc(C)c4onc(OC)c4c3)cc12 [Compound 7, 3-[4,4-Bis-(3-methoxy-7-methyl-benzo[d]isoxazol-5-yl)-but-3-enyl]-oxazolidin-2-one]
- HIV-1 RT inhibition (in words) [1]: active

Compound: COc1noc2c(C)cc(/C(=C\CCN3CCOC3=O)c3cc(C)c4oc(=O)n(C)c4c3)cc12 [Compound 8, (E)-5-[1-(3-Methoxy-7-methylbenzo[d]isoxazol-5-yl)-4-(2-oxoxazolidin-3-yl)-but-1-enyl]-3,7-dimethyl-3H-benzoxazol-2-one]
- HIV-1 RT inhibition (in words) [1]: much less active

Compound: COc1noc2c(C)cc(/C(=C\CCN3CCOC3=O)c3cccc(C#N)c3)cc12 [Compound 9, (Z)-3-[1-(3-Methoxy-7-methylbenzo[d]isoxazol-5-yl)-4-(2-oxoxazolidin-3-yl)-but-1-enyl]-benzonitrile]
- HIV-1 RT inhibition (in words) [1]: much less active
